From patent US9321742B2, “N1-cyclic amine-N5-substituted biguanide derivatives, methods of preparing the same and pharmaceutical composition comprising the same” (IMMUNOMET THERAPEUTICS INC., priority 2011, dated 2016) come the findings set out here.

One data set relates to HCT116 cells. Put plainly: Measurement of effect of inhibiting cancer cell proliferation (MTT). The settings on record: Homo sapiens; for inhibition at 100 µM: HCT-116, 100 uM, 48 hours, read-out: Cell Growth Inhibition (%) at 100 uM; for GI50: HCT-116, 48 hours. Format: cell-based. The text has this:
HCT116 cells derived from human colorectal cancer (commercially available from the Korean Cell Line Bank) were used, and the effect of inhibiting cancer cell proliferation of the biguanide derivative was confirmed by measuring the concentration value (cell growth inhibition concentration, GIC50) at which cell growth was inhibited by 50% using a 3-(4,5-dimethylthiazol-2-yl)-2,5-[…] bromide (MTT) reagent.
First, HCT116 cells were put on a 96-well plate and cultured in a DMEM medium containing 10% fetal bovine serum for 16 hours so that the cellcount in each well was approximately 5,000. Subsequently, to obtain the GIC50 value of each compound, culture media were treated with 100 μM, 25 μM, 6.25 μM, 1.56 μM or 0.39 μM of the compound, and then cultured for 48 hours. At this time, some of the compounds were treated with 200 μM instead of 100 μM. Metformin hydrochloride was used as the control, and the culture media were treated with 25, 12.5, 2.5, 0.5, 0.1 mM metformin hydrochloride, and then tested in the same manner as described in the derivatives synthesized in the examples. In order to determine whether the cells survived after treatment with the compound, MTT was added to the culture media which were then cultured for another 3 hours. Formed formazane crystals were dissolved using dimethyl sulfoxide (DMSO), and the absorbance of the resulting solution was measured at 560 nm. After the 48-hours culture, the ratio of the cell count cultured on a well plate not treated with the compound to the living cell count on a well plate treated with the compounds synthesized in the examples was indicated as cell viability (%) according to each treated concentration. A cell viability curve graph was plotted and the concentration (GIC50) value of the compound at which the growth was inhibited by 50% was calculated to confirm the effect of inhibition of cancer cell proliferation. Also, the cell growth viability (%) when the concentration of the treated biguanide derivative and the metformin hydrochloride as the control were 100 uM was shown.

Another data set deals with AMPKα. Put plainly: Measurement of AMPK-activation effect (AMPKα Thr172 phosphorylation immunoassay in MCF7 cells). It counts as cell-based, human. The settings on record: 24 hours; for AMPK activation effect 10 uM (%) / AMPK activation effect 50 uM (%): relative to untreated cells. Here is the method:
MCF7 cells derived from human breast cancer cells (commercially available from the Korean Cell Line Bank) were used, and the AMPK (5′-AMP-activated protein kinase alpha)-activation effect of the biguanide derivative was confirmed using an AMPKα immunoassay kit (Invitrogen, Catalog No. KH00651).
MCF7 cells were cultured in a DMEM medium supplemented with 10% fetal bovine serum. Thereafter, the cultured MCF7 cells were put into a 6-well plate with approximately 5×10^5 cells per well and cultured in an incubator supplied with 5% CO2. Culture media were treated with the derivatives synthesized in the examples at contents of 5, 10 and 50 μM, and then cultured for 24 hours. Metformin hydrochloride was used as the control, and the culture media were treated with 0.05, 0.5, 1, 2, 5 and 10 mM metformin hydrochloride, and then tested in the same manner as described in the derivatives synthesized in the examples. Subsequently, the cells were lysed according to a method presented in the operation manual of the AMPKα immunoassay kit, and 20 μg of a cell lysate was then yielded through protein assay. Thereafter, the AMPK activation effect was obtained by determining the degree of phosphorylation of 172nd threonine residue (Thr172) of the AMPKα from the cell lysate according to the method presented in the operation manual of the AMPKα immunoassay kit. […] A curve graph showing AMPK activation according to the concentration of the treated compounds was plotted based on the obtained AMPKα activation results, the concentration (activation concentration 150, AC150) value of the compound whose AMPK activation reached 150% was calculated using a GraphPad Prism 5.0 program, and the degrees of AMPK activation were obtained when concentrations of the treated biguanide derivatives were 10 μM and 50 μM and the metformin hydrochloride was 50 μM.

The molecule `Cl.N=C(NCc1ccco1)NC(=N)N1CCCC1` [Example 22, N1-pyrrolidine-N5-(furan-2-ylmethyl)biguanide hydrochloride] showed a melting point of 242 to 243 °C. In addition, in the data set with HCT116 cells, the inhibition at 100 µM worked out at 43.9% and the GI50 is greater than 100 µM. Further, in the data set with AMPKα, the “AMPK activation effect 10 uM (%)” value was found to be 101%, the “AMPK activation effect 50 uM (%)” value is 293% and the “AC150 (concentration at which AMPK activation reached 150%)” value worked out at 18.3 µM.
With `Cl.N=C(NCc1ccco1)NC(=N)N1CCCCC1` [Example 23, N1-piperidine-N5-(furan-2-ylmethyl)biguanide hydrochloride], the melting point is 251 to 252 °C. Further, in the data set with HCT116 cells, the inhibition at 100 µM was 39.5% and the GI50 was greater than 100 µM. Further, in the data set with AMPKα, the “AMPK activation effect 10 uM (%)” value is 112%, the “AMPK activation effect 50 uM (%)” value is reported as 298% and the “AC150 (concentration at which AMPK activation reached 150%)” value turned out to be 15.8 µM.
In turn, `Cl.N=C(NCc1cccs1)NC(=N)N1CCCCC1` [Example 24, N1-piperidine-N5-(thiophene-2-ylmethyl)biguanide hydrochloride] came in with a melting point of 220 to 221 °C. Moreover, in the data set with HCT116 cells, the inhibition at 100 µM came out at 51.7% and the GI50 was 93.2 µM. In addition, in the data set on AMPKα, the “AMPK activation effect 10 uM (%)” value stood at 64%, the “AMPK activation effect 50 uM (%)” value is given as 112% and the “AC150 (concentration at which AMPK activation reached 150%)” value is greater than 50 µM.
Molecule `Cc1ccc(CNC(=N)NC(=N)N2CCCCC2)cc1.Cl` [Example 27, N1-piperidine-N5-(4-methyl)benzyl biguanide hydrochloride] came in with a melting point of 241 to 243 °C. Also, in the data set on HCT116 cells, the inhibition at 100 µM came to 64.9% and the GI50 is 70.5 µM. Moreover, in the data set on AMPKα, the “AMPK activation effect 10 uM (%)” value turned out to be 435%, the “AMPK activation effect 50 uM (%)” value is recorded as 947% and the “AC150 (concentration at which AMPK activation reached 150%)” value came to 2.3 µM.
`COc1ccc(CNC(=N)NC(=N)N2CCCCC2)cc1.Cl` [Example 28, N1-piperidine-N5-(4-methoxy)benzyl biguanide hydrochloride] gave a melting point of 213 to 214 °C. In addition, in the data set on HCT116 cells, the inhibition at 100 µM came to 28.3% and the GI50 is greater than 100 µM. For the same molecule, in the data set on AMPKα, the “AMPK activation effect 10 uM (%)” value is 258%, the “AMPK activation effect 50 uM (%)” value was 628% and the “AC150 (concentration at which AMPK activation reached 150%)” value was 3.9 µM.
As to `Cl.N=C(NCc1ccc(F)cc1)NC(=N)N1CCCCC1` [Example 30, N1-piperidine-N5-(4-fluoro)benzyl biguanide hydrochloride], the melting point was in the range of 250 to 251 °C. In the data set with HCT116 cells, the inhibition at 100 µM is 47% and the GI50 was greater than 100 µM. Further, in the data set on AMPKα, the “AMPK activation effect 10 uM (%)” value was 143%, the “AMPK activation effect 50 uM (%)” value was determined as 278% and the “AC150 (concentration at which AMPK activation reached 150%)” value turned out to be 13.1 µM.
Molecule `Cl.N=C(NCc1ccc(Cl)cc1)NC(=N)N1CCCC1` [Example 31, N1-pyrrolidine-N5-(4-chloro)benzyl biguanide hydrochloride] displayed a melting point of 250 to 251 °C. Also, in the data set with HCT116 cells, the inhibition at 100 µM was 65.9% and growth was halved (GI50) at 17.6 µM. For the same molecule, in the data set on AMPKα, the “AMPK activation effect 10 uM (%)” value amounted to 304%, the “AMPK activation effect 50 uM (%)” value is reported as 776% and the “AC150 (concentration at which AMPK activation reached 150%)” value was found to be 2.3 µM.
`Cl.N=C(NCc1ccc(Cl)cc1)NC(=N)N1CCCCCC1` [Example 33, N1-azepane-N5-(4-chloro)benzyl biguanide hydrochloride] displayed a melting point of 222 to 223 °C. Also, in the data set with HCT116 cells, the inhibition at 100 µM stood at 25.3% and the GI50 amounted to 4.9 µM. Further, in the data set on AMPKα, the “AMPK activation effect 50 uM (%)” value came out at 443% and the “AC150 (concentration at which AMPK activation reached 150%)” value came out at 1.2 µM.
Molecule `Cl.N=C(NCc1ccc(Br)cc1)NC(=N)N1CCCC1` [Example 34, N1-pyrrolidine-N5-(4-bromo)benzyl biguanide hydrochloride] returned a melting point of 267 to 268 °C. In addition, in the data set on HCT116 cells, the inhibition at 100 µM came out at 97.3% and the GI50 stood at 92.8 µM. For the same molecule, in the data set with AMPKα, the “AMPK activation effect 10 uM (%)” value was 467%, the “AMPK activation effect 50 uM (%)” value was determined as 639% and the “AC150 (concentration at which AMPK activation reached 150%)” value was found to be 42.4 µM.
As to `Cl.N=C(NCc1ccc(Br)cc1)NC(=N)N1CCCCC1` [Example 35, N1-piperidine-N5-(4-bromo)benzyl biguanide hydrochloride], the melting point lay within 261 to 262 °C. Besides, in the data set on HCT116 cells, the inhibition at 100 µM is 53.8% and the GI50 stood at 23.2 µM. In the data set on AMPKα, the “AMPK activation effect 10 uM (%)” value is 140%, the “AMPK activation effect 50 uM (%)” value came out at 150% and the “AC150 (concentration at which AMPK activation reached 150%)” value amounted to 1.1 µM.
`Cl.N=C(NCc1cccc(C(F)(F)F)c1)NC(=N)N1CCOCC1` [Example 36, N1-morpholine-N5-(3-trifluoromethyl)benzyl biguanide hydrochloride]: the melting point lay within 211 to 212 °C. Also, in the data set with HCT116 cells, the inhibition at 100 µM was found to be 97.2% and the GI50 was greater than 100 µM. In the data set on AMPKα, the “AMPK activation effect 10 uM (%)” value amounted to 516%, the “AMPK activation effect 50 uM (%)” value is on record as 656% and the “AC150 (concentration at which AMPK activation reached 150%)” value was greater than 50 µM.
Turning to `Cl.N=C(NCc1ccc(C(F)(F)F)cc1)NC(=N)N1CCC1` [Example 37, N1-azetidine-N5-(4-trifluoromethyl)benzyl biguanide hydrochloride], the melting point is 260 to 261 °C. For the same molecule, in the data set with HCT116 cells, the inhibition at 100 µM came out at 23.5% and the GI50 came to 39.3 µM. Besides, in the data set on AMPKα, the “AMPK activation effect 10 uM (%)” value is given as 100%, the “AMPK activation effect 50 uM (%)” value turned out to be 107% and the “AC150 (concentration at which AMPK activation reached 150%)” value was determined as 24.2 µM.
`Cl.N=C(NCc1ccc(C(F)(F)F)cc1)NC(=N)N1CCCC1` [Example 38, N1-pyrrolidine-N5-(4-trifluoromethyl)benzyl biguanide hydrochloride]: the melting point lay in the range of 268 to 270 °C. For the same molecule, in the data set on HCT116 cells, the inhibition at 100 µM amounted to 61.6% and it took 32.4 µM to inhibit growth by half (GI50). For the same molecule, in the data set with AMPKα, the “AMPK activation effect 10 uM (%)” value came to 116%, the “AMPK activation effect 50 uM (%)” value amounted to 213% and the “AC150 (concentration at which AMPK activation reached 150%)” value is 1.4 µM.
Molecule `Cl.N=C(NCc1ccc(OC(F)(F)F)cc1)NC(=N)N1CCC1` [Example 40, N1-azetidine-N5-(4-trifluoromethoxy)benzyl biguanide hydrochloride] returned a melting point of 182 to 184 °C. In addition, in the data set with HCT116 cells, the inhibition at 100 µM came out at 97.8% and the GI50 was 36.9 µM. In addition, in the data set with AMPKα, the “AMPK activation effect 10 uM (%)” value was determined as 673%, the “AMPK activation effect 50 uM (%)” value came out at 1076% and the “AC150 (concentration at which AMPK activation reached 150%)” value stood at 3.9 µM.
With `Cl.N=C(NCc1ccc(OC(F)(F)F)cc1)NC(=N)N1CCCC1` [Example 41, N1-pyrrolidine-N5-(4-trifluoromethoxy)benzyl biguanide hydrochloride], the melting point fell in the range of 242 to 243 °C. In the data set with HCT116 cells, the inhibition at 100 µM stood at 97.4% and it took 25.6 µM to inhibit growth by half (GI50). For the same molecule, in the data set on AMPKα, the “AMPK activation effect 10 uM (%)” value was 242%, the “AMPK activation effect 50 uM (%)” value turned out to be 698% and the “AC150 (concentration at which AMPK activation reached 150%)” value came out at 0.9 µM.
